According to patent publication US6632643B2, “Use of α-1,4-glucan lyase for preparation of 1,5-D-hydrofructose” (Danisco A/S, priority 1993, dated 2003):
Marks after values point to notes of the source that are not given here.

Tests used:
[1] = system: lyase from M. vulgaris; experiment: Relative degrading rates of the lyase from M. vulgaris towards various substrates; type: biochemical, Morchella vulgaris; conditions: for degradation (AF detectable on TLC plates): incubated for 48 h; for Activity (%) (maltotetraose = 100%): all substrates 10 mg ml^−1
Procedure: The activity observed for maltotetraose is treated as 100%. The final concentration of all substrates was 10 mg ml^−1.

[2] = system: lyase from M. costata; experiment: Relative degrading rates of the lyase from M. costata towards various substrates; type: biochemical, Morchella costata; conditions: for degradation (AF detectable on TLC plates): incubated for 48 h; for activity (maltotetraose as 100%): purified fungal lyase, section B.1.4.3
[3] = system: lyase purified from the fungal infected algae; experiment: Effect of alcohols on activity and stability of the lyase (AF yield); type: biochemical, fungal infected Gracilariopsis lemaneiformis
Procedure: 1-propanol, 2-propanol and 1-butanol were tested at the following concentrations (0%, 1%, 5% and 10%).
Ethanol was tested at the following concentrations (0, 1, 3, 5, 7, 9, 11, 13, 15%).

[4] = system: α-1,4-glucan lyase; experiment: Activity of the lyase towards maltosaccharides (summary); type: biochemical
[5] = system: α-1,4-glucan lyase from the parasite-free red seaweed Gracilariopsis lemaneiformis; experiment: Degradation rates of the Californian algal lyase on various substrates; type: biochemical; conditions: for AF released: substrate 10 mg/ml, pH 3.8, 40 min at 45° C.
Procedure: Reaction conditions: The reaction mixture contained 10 mM of HOAc-NaOAc (pH 3.8). The substrate concentration was 10 mg/ml. The final volume was 100 ul after the addition of lyase and water. The reaction time was 40 min at 45° C.

[6] = system: lyase from the fungal infected Gracilariopsis lemaneiformis; experiment: Reaction rates with glycogen and amylopectin, lyase from fungal infected Gracilariopsis lemaneiformis; type: biochemical

O=[N+]([O-])c1ccc(OC2OC(CO)C(OC3OC(CO)C(OC4OC(CO)C(OC5OC(CO)C(OC6OC(CO)C(OC7OC(CO)C(OC8OC(CO)C(O)C(O)C8O)C(O)C7O)C(O)C6O)C(O)C5O)C(O)C4O)C(O)C3O)C(O)C2O)cc1 (stereo not drawn)
degradation (AF detectable on TLC plates) [1]: no AF detectable
degradation by the fungal lyase [2]: failed to degrade
degradation (AF detectable on TLC plates) [2]: no AF detectable

1-butanol
increase of AF yield ([3]; 5%, after 3-day incubation): 52%
optimal concentration for AF yield ([3]; tested at 0%, 1%, 5% and 10%): 5%

1-propanol
AF yield ([3]; 1% (v/v), 1 day): 80 µmol
AF yield ([3]; 1% (v/v), 3 days): 280 µmol
AF yield ([3]; 1% (v/v), 6 days): 530 µmol
AF yield ([3]; 1% (v/v), 10 days): 803 µmol
AF yield ([3]; 5% (v/v), 1 day): 115 µmol
AF yield ([3]; 5% (v/v), 3 days): 367 µmol
AF yield ([3]; 5% (v/v), 6 days): 605 µmol
AF yield ([3]; 5% (v/v), 10 days): 853 µmol
increase of AF yield ([3]; 5%, after 6 days of incubation): 34%
AF yield ([3]; 10% (v/v), 1 day): 107 µmol
AF yield ([3]; 10% (v/v), 3 days): 307 µmol
AF yield ([3]; 10% (v/v), 6 days): 456 µmol
AF yield ([3]; 10% (v/v), 10 days): 583 µmol
optimal concentration for AF yield ([3]; tested at 0%, 1%, 5% and 10%): 5%

CC(C)O [2-propanol]
increase of AF yield ([3]; 1%, after 10 days incubation): 20%
optimal concentration for AF yield ([3]; tested at 0%, 1%, 5% and 10%): 1%

CCO [Ethanol]
increase of AF yield ([3]; 3%, 10 days incubation): 16%
increase of AF yield ([3]; 5%, 7 days incubation): 12%
optimal concentration for AF yield ([3]; 7 days incubation, tested 0-15%): 5%
optimal concentration for AF yield ([3]; 10 days incubation, tested 0-15%): 3%

OC[C@H]1O[C@H](O[C@H]2[C@H](O)[C@@H](O)[C@@H](O[C@H]3[C@H](O)[C@@H](O)[C@@H](O[C@H]4[C@H](O)[C@@H](O)[C@@H](O[C@H]5[C@H](O)[C@@H](O)[C@@H](O[C@H]6[C@H](O)[C@@H](O)[C@@H](O[C@H]7[C@H](O)[C@@H](O)C(O)O[C@@H]7CO)O[C@@H]6CO)O[C@@H]5CO)O[C@@H]4CO)O[C@@H]3CO)O[C@@H]2CO)[C@H](O)[C@@H](O)[C@@H]1O (stereo partly drawn) [Maltoheptaose, maltoheptaose]
Activity (%) (maltotetraose = 100%) [1]: 73.9%
lyase activity towards maltosaccharide [4]: lower activity
AF released [5]: 865 nmol
activity (maltotetraose as 100%) [2]: 76%
relative degrading rate (maltotetraose = 100%) ([2]; substrate 2 mg/ml): 82.2%
relative degrading rate (maltotetraose = 100%) ([2]; substrate 4 mg/ml): 81.5%
relative degrading rate (maltotetraose = 100%) ([2]; substrate 10 mg/ml): 75.7%

OC[C@H]1O[C@H](O[C@H]2[C@H](O)[C@@H](O)[C@@H](O[C@H]3[C@H](O)[C@@H](O)[C@@H](O[C@H]4[C@H](O)[C@@H](O)[C@@H](O[C@H]5[C@H](O)[C@@H](O)[C@@H](O[C@H]6[C@H](O)[C@@H](O)C(O)O[C@@H]6CO)O[C@@H]5CO)O[C@@H]4CO)O[C@@H]3CO)O[C@@H]2CO)[C@H](O)[C@@H](O)[C@@H]1O (stereo partly drawn) [Maltohexaose, maltohexaose]
Activity (%) (maltotetraose = 100%) [1]: 92.4%
AF released [5]: 826 nmol
activity (maltotetraose as 100%) [2]: 97%
relative degrading rate (maltotetraose = 100%) ([2]; substrate 2 mg/ml): 86.6%
relative degrading rate (maltotetraose = 100%) ([2]; substrate 4 mg/ml): 98.2%
relative degrading rate (maltotetraose = 100%) ([2]; substrate 10 mg/ml): 95.9%

OC[C@H]1O[C@H](O[C@H]2[C@H](O)[C@@H](O)[C@@H](O[C@H]3[C@H](O)[C@@H](O)[C@@H](O[C@H]4[C@H](O)[C@@H](O)[C@@H](O[C@H]5[C@H](O)[C@@H](O)C(O)O[C@@H]5CO)O[C@@H]4CO)O[C@@H]3CO)O[C@@H]2CO)[C@H](O)[C@@H](O)[C@@H]1O (stereo partly drawn) [Maltopentaose, maltopentaose]
Activity (%) (maltotetraose = 100%) [1]: 79.3%
lyase activity towards maltosaccharide [4]: highest activity
AF released [5]: 674 nmol
relative degrading rate (maltotetraose = 100%) ([2]; substrate 2 mg/ml): 107.1%
relative degrading rate (maltotetraose = 100%) ([2]; substrate 4 mg/ml): 100.1%
relative degrading rate (maltotetraose = 100%) ([2]; substrate 10 mg/ml): 99.7%

OC[C@H]1O[C@H](O[C@H]2[C@H](O)[C@@H](O)[C@@H](O[C@H]3[C@H](O)[C@@H](O)[C@@H](O[C@H]4[C@H](O)[C@@H](O)C(O)O[C@@H]4CO)O[C@@H]3CO)O[C@@H]2CO)[C@H](O)[C@@H](O)[C@@H]1O (stereo partly drawn) [Maltotetraose, maltotetraose]
Activity (%) (maltotetraose = 100%) [1]: 100.0%
lyase activity towards maltosaccharide [4]: highest activity
AF released [5]: 670 nmol
activity (maltotetraose as 100%) [2]: 100%
relative degrading rate (maltotetraose = 100%) ([2]; substrate 2 mg/ml): 100%
relative degrading rate (maltotetraose = 100%) ([2]; substrate 4 mg/ml): 100%
relative degrading rate (maltotetraose = 100%) ([2]; substrate 10 mg/ml): 100%

OC[C@H]1O[C@H](O[C@H]2O[C@H](CO)[C@@H](O)[C@H](O)[C@H]2O)[C@H](O)[C@@H](O)[C@@H]1O [Trehalose]
degradation (AF detectable on TLC plates) [1]: no AF detectable
degradation by the lyase [5]: not able to degrade
degradation (AF detectable on TLC plates) [2]: no AF detectable

OC[C@H]1O[C@@H]2O[C@H]3[C@H](O)[C@@H](O)[C@@H](O[C@H]4[C@H](O)[C@@H](O)[C@@H](O[C@H]5[C@H](O)[C@@H](O)[C@@H](O[C@H]6[C@H](O)[C@@H](O)[C@@H](O[C@H]7[C@H](O)[C@@H](O)[C@@H](O[C@H]1[C@H](O)[C@H]2O)O[C@@H]7CO)O[C@@H]6CO)O[C@@H]5CO)O[C@@H]4CO)O[C@@H]3CO [alpha-cyclodextrin]
degradation (AF detectable on TLC plates) [1]: no AF detectable
degradation by the lyase [5]: not able to degrade
degradation (AF detectable on TLC plates) [2]: no AF detectable

OC[C@H]1O[C@@H]2O[C@H]3[C@H](O)[C@@H](O)[C@@H](O[C@H]4[C@H](O)[C@@H](O)[C@@H](O[C@H]5[C@H](O)[C@@H](O)[C@@H](O[C@H]6[C@H](O)[C@@H](O)[C@@H](O[C@H]7[C@H](O)[C@@H](O)[C@@H](O[C@H]8[C@H](O)[C@@H](O)[C@@H](O[C@H]1[C@H](O)[C@H]2O)O[C@@H]8CO)O[C@@H]7CO)O[C@@H]6CO)O[C@@H]5CO)O[C@@H]4CO)O[C@@H]3CO [beta-cyclodextrin]
degradation (AF detectable on TLC plates) [1]: no AF detectable
degradation by the lyase [5]: not able to degrade
degradation (AF detectable on TLC plates) [2]: no AF detectable

OC[C@H]1O[C@@H]2O[C@H]3[C@H](O)[C@@H](O)[C@@H](O[C@H]4[C@H](O)[C@@H](O)[C@@H](O[C@H]5[C@H](O)[C@@H](O)[C@@H](O[C@H]6[C@H](O)[C@@H](O)[C@@H](O[C@H]7[C@H](O)[C@@H](O)[C@@H](O[C@H]8[C@H](O)[C@@H](O)[C@@H](O[C@H]9[C@H](O)[C@@H](O)[C@@H](O[C@H]1[C@H](O)[C@H]2O)O[C@@H]9CO)O[C@@H]8CO)O[C@@H]7CO)O[C@@H]6CO)O[C@@H]5CO)O[C@@H]4CO)O[C@@H]3CO [gama-cyclodextrin]
degradation (AF detectable on TLC plates) [1]: no AF detectable
degradation by the lyase [5]: not able to degrade
degradation (AF detectable on TLC plates) [2]: no AF detectable

OC[C@H]1O[C@H](OC[C@H]2OC(O)[C@H](O)[C@@H](O)[C@@H]2O)[C@H](O)[C@@H](O)[C@@H]1O (stereo partly drawn) [isomaltose]
degradation (AF detectable on TLC plates) [1]: no AF detectable
degradation by the lyase [5]: not able to degrade
degradation (AF detectable on TLC plates) [2]: no AF detectable

OC[C@H]1O[C@H](O[C@H]2[C@H](O)[C@@H](CO)OC(O)[C@@H]2O)[C@H](O)[C@@H](O)[C@@H]1O (stereo partly drawn) [nigerose]
degradation (AF detectable on TLC plates) [1]: no AF detectable
degradation by the lyase [5]: slow rate
degradation (AF detectable on TLC plates) [2]: no AF detectable

OC[C@H]1O[C@H](O[C@@H]2[C@@H](O)[C@@H](O[C@@H]3[C@@H](O)[C@@H](O[C@H]4[C@H](O)[C@@H](CO)OC(O)[C@@H]4O)O[C@H](CO)[C@H]3O)O[C@H](CO)[C@H]2O)[C@H](O)[C@@H](O)[C@@H]1O (stereo partly drawn) [nigerotetraose]
degradation (AF detectable on TLC plates) [1]: no AF detectable
degradation by the lyase [5]: not able to degrade
degradation (AF detectable on TLC plates) [2]: no AF detectable

O=[N+]([O-])c1ccc(O[C@H]2O[C@H](CO)[C@@H](O[C@H]3O[C@H](CO)[C@@H](O[C@H]4O[C@H](CO)[C@@H](O[C@H]5O[C@H](CO)[C@@H](O[C@H]6O[C@H](CO)[C@@H](O[C@H]7O[C@H](CO)[C@@H](O[C@H]8O[C@H](CO)[C@@H](O)[C@H](O)[C@H]8O)[C@H](O)[C@H]7O)[C@H](O)[C@H]6O)[C@H](O)[C@H]5O)[C@H](O)[C@H]4O)[C@H](O)[C@H]3O)[C@H](O)[C@H]2O)cc1 [p-nitrophenyl α-D-maltoheptaose]
degradation by the fungal lyase [2]: degraded

OC[C@H]1O[C@H](OC[C@H]2O[C@H](O[C@H]3[C@H](O)[C@@H](O)C(O)O[C@@H]3CO)[C@H](O)[C@@H](O)[C@@H]2O)[C@H](O)[C@@H](O)[C@@H]1O (stereo partly drawn) [panose]
degradation (AF detectable on TLC plates) [1]: no AF detectable
degradation by the lyase [5]: slow rate
degradation (AF detectable on TLC plates) [2]: no AF detectable

Glycogen
Activity (%) (maltotetraose = 100%) [1]: 183.3%
substrate concentration at which half of the maximal velocity rate was reached [5]: 3.37 mg/mL
AF released [5]: 592 nmol
degradation by the fungal lyase [2]: also degraded
relative degrading rate (maltotetraose = 100%) ([2]; substrate 10 mg/ml): 128.5%
ratio of relative reaction rates between Glycogen and Amylopectin (%) ([6]; 25 C.): 72.4%
relative reaction rates ([6]; 25 C.): 0.592^a
ratio of relative reaction rates between Glycogen and Amylopectin (%) ([6]; 30 C.): 79.8%
relative reaction rates ([6]; 30 C.): 0.904^a
ratio of relative reaction rates between Glycogen and Amylopectin (%) ([6]; 45 C.): 158.9%
relative reaction rates ([6]; 45 C.): 1.861^a

Soluble starch
Activity (%) (maltotetraose = 100%) [1]: 100.5%
relative degrading rate (maltotetraose = 100%) ([2]; substrate 10 mg/ml): 92.9%

amylose
degradation by the fungal lyase [2]: also degraded

pullulan
degradation (AF detectable on TLC plates) [1]: no AF detectable
degradation by the lyase [5]: not able to degrade
degradation (AF detectable on TLC plates) [2]: no AF detectable
